From ChEMBL document CHEMBL4507329, “Data for DCP probe BTZO-1” (2021)

Legend:
[1] = tested on: Tyrosine-protein kinase ABL1 (Homo sapiens), P00519 [M351T]; settings: Compound concentration 1000.0 nM
[2] = tested on: Tyrosine-protein kinase ABL1 (Homo sapiens), P00519 [Q252H]; settings: Compound concentration 1000.0 nM
[3] = target: Ankyrin repeat and protein kinase domain-containing protein 1 (Homo sapiens) (UniProt Q8NFD2); settings: Compound concentration 1000.0 nM
[4] = target: Aurora kinase A (Homo sapiens) (UniProt O14965); settings: Compound concentration 1000.0 nM
[5] = target: Tyrosine-protein kinase Blk (Homo sapiens) (UniProt P51451); settings: Compound concentration 1000.0 nM
[6] = target: Bone morphogenetic protein receptor type-1B (Homo sapiens) (UniProt O00238); settings: Compound concentration 1000.0 nM
[7] = target: Calcium/calmodulin-dependent protein kinase type II subunit delta (Homo sapiens) (UniProt Q13557); settings: Compound concentration 1000.0 nM
[8] = target: Serine/threonine-protein kinase 17A (Homo sapiens) (UniProt Q9UEE5); settings: Compound concentration 1000.0 nM
[9] = tested on: Epidermal growth factor receptor (Homo sapiens), P00533 [L858R,T790M]; settings: Compound concentration 1000.0 nM
[10] = target: Ephrin type-A receptor 4 (Homo sapiens) (UniProt P54764); settings: Compound concentration 1000.0 nM
[11] = target: Ephrin type-B receptor 3 (Homo sapiens) (UniProt P54753); settings: Compound concentration 1000.0 nM
[12] = target: Mitogen-activated protein kinase 4 (Homo sapiens) (UniProt P31152); settings: Compound concentration 1000.0 nM
[13] = target: Tyrosine-protein kinase Fgr (Homo sapiens) (UniProt P09769); settings: Compound concentration 1000.0 nM
[14] = target: Rhodopsin kinase GRK1 (Homo sapiens) (UniProt Q15835); settings: Compound concentration 1000.0 nM
[15] = target: Rhodopsin kinase GRK7 (Homo sapiens) (UniProt Q8WTQ7); settings: Compound concentration 1000.0 nM
[16] = target: Mitogen-activated protein kinase kinase kinase kinase 1 (Homo sapiens) (UniProt Q92918); settings: Compound concentration 1000.0 nM
[17] = target: Serine/threonine-protein kinase ICK (Homo sapiens) (UniProt Q9UPZ9); settings: Compound concentration 1000.0 nM
[18] = tested on: Mast/stem cell growth factor receptor Kit (Homo sapiens), P10721 [D816H]; settings: Compound concentration 1000.0 nM
[19] = target: LIM domain kinase 2 (Homo sapiens) (UniProt P53671); settings: Compound concentration 1000.0 nM
[20] = tested on: Leucine-rich repeat serine/threonine-protein kinase 2 (Homo sapiens), Q5S007 [G2019S]; settings: Compound concentration 1000.0 nM
[21] = target: Serine/threonine-protein kinase MAK (Homo sapiens) (UniProt P20794); settings: Compound concentration 1000.0 nM
[22] = target: Myosin light chain kinase (Homo sapiens) (UniProt Q32MK0); settings: Compound concentration 1000.0 nM
[23] = target: Serine/threonine-protein kinase 4 (Homo sapiens) (UniProt Q13043); settings: Compound concentration 1000.0 nM
[24] = target: Serine/threonine-protein kinase mTOR (Homo sapiens) (UniProt P42345); settings: Compound concentration 1000.0 nM
[25] = target: Serine/threonine-protein kinase Nek4 (Homo sapiens) (UniProt P51957); settings: Compound concentration 1000.0 nM
[26] = target: Serine/threonine-protein kinase NLK (Homo sapiens) (UniProt Q9UBE8); settings: Compound concentration 1000.0 nM
[27] = target: Calcium-dependent protein kinase 1 (Plasmodium falciparum) (UniProt P62344); settings: Compound concentration 1000.0 nM
[28] = tested on: Phosphatidylinositol 4,5-bisphosphate 3-kinase catalytic subunit alpha isoform (Homo sapiens), P42336 [E545A]; settings: Compound concentration 1000.0 nM
[29] = target: 1-phosphatidylinositol 3-phosphate 5-kinase (Homo sapiens) (UniProt Q9Y2I7); settings: Compound concentration 1000.0 nM
[30] = target: Serine/threonine-protein kinase PLK3 (Homo sapiens) (UniProt Q9H4B4); settings: Compound concentration 1000.0 nM
[31] = target: cGMP-dependent protein kinase 1 (Homo sapiens) (UniProt Q13976); settings: Compound concentration 1000.0 nM
[32] = target: Serine/threonine-protein kinase RIO3 (Homo sapiens) (UniProt O14730); settings: Compound concentration 1000.0 nM
[33] = target: Receptor-interacting serine/threonine-protein kinase 4 (Homo sapiens) (UniProt P57078); settings: Compound concentration 1000.0 nM
[34] = target: STE20-like serine/threonine-protein kinase (Homo sapiens) (UniProt Q9H2G2); settings: Compound concentration 1000.0 nM
[35] = target: NUAK family SNF1-like kinase 2 (Homo sapiens) (UniProt Q9H093); settings: Compound concentration 1000.0 nM
[36] = target: Serine/threonine-protein kinase 33 (Homo sapiens) (UniProt Q9BYT3); settings: Compound concentration 1000.0 nM
[37] = target: Serine/threonine-protein kinase TAO3 (Homo sapiens) (UniProt Q9H2K8); settings: Compound concentration 1000.0 nM
[38] = target: Non-receptor tyrosine-protein kinase TNK1 (Homo sapiens) (UniProt Q13470); settings: Compound concentration 1000.0 nM
[39] = target: Serine/threonine-protein kinase ULK1 (Homo sapiens) (UniProt O75385); settings: Compound concentration 1000.0 nM
[40] = target: Wee1-like protein kinase (Homo sapiens) (UniProt P30291); settings: Compound concentration 1000.0 nM
[41] = target: Mitogen-activated protein kinase kinase kinase 19 (Homo sapiens) (UniProt Q56UN5); settings: Compound concentration 1000.0 nM
[42] = target: D(3) dopamine receptor (Homo sapiens) (UniProt P35462); settings: Compound concentration 10.0 uM
[43] = target: Delta-type opioid receptor (Homo sapiens) (UniProt P41143); settings: Compound concentration 10.0 uM
[44] = target: Kappa-type opioid receptor (Homo sapiens) (UniProt P41145); settings: Compound concentration 10.0 uM
[45] = target: Muscarinic acetylcholine receptor M5 (Homo sapiens) (UniProt P08912); settings: Compound concentration 10.0 uM

Sequence of Serine/threonine-protein kinase 33 (Homo sapiens) (Q9BYT3 whole entry, looked up): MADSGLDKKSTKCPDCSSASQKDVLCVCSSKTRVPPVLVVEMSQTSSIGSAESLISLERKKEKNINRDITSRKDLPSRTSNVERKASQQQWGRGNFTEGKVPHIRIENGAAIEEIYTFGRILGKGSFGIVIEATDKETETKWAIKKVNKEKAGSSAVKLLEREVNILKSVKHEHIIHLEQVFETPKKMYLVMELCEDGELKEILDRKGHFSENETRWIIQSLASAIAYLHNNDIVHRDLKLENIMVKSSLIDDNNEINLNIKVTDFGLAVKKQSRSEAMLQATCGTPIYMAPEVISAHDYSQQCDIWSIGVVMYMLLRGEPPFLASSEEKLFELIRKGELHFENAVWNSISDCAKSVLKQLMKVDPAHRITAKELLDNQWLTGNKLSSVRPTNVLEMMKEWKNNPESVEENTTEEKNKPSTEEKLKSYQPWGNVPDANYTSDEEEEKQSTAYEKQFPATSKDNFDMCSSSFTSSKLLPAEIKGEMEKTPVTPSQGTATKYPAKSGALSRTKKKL
Sequence of Calcium-dependent protein kinase 1 (Plasmodium falciparum) (P62344 2-524 limits assumed): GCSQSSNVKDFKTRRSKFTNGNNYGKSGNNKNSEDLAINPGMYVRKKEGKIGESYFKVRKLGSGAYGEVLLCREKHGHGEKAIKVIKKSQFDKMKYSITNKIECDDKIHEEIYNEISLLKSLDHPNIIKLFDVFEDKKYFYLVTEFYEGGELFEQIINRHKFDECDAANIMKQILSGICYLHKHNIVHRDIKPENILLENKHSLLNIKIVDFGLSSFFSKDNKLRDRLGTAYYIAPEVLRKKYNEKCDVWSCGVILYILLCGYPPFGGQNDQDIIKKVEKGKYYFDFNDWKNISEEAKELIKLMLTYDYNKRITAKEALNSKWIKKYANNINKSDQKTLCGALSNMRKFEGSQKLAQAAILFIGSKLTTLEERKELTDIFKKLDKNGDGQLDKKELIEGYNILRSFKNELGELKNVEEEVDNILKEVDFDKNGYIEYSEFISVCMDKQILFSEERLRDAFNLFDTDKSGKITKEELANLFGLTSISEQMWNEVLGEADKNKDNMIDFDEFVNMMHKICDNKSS
Sequence of NUAK family SNF1-like kinase 2 (Homo sapiens) (Q9H093 whole entry): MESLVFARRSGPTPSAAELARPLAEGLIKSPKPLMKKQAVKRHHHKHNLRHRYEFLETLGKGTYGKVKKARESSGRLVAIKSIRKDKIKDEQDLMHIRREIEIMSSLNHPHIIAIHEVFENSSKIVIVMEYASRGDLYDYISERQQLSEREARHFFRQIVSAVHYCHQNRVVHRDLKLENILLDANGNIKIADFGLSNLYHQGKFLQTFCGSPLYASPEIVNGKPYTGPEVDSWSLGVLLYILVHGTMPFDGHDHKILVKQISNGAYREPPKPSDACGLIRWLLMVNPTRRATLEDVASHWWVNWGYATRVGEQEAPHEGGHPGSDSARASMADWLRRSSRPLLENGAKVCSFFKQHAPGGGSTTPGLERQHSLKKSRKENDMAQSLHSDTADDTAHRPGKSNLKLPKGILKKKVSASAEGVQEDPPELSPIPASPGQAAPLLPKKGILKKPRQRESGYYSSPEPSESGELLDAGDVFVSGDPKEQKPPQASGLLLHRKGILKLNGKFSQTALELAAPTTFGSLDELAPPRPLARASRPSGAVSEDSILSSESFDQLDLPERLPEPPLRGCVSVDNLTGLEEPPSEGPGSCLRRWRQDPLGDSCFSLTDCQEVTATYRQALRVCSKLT
Sequence of Serine/threonine-protein kinase TAO3 (Homo sapiens) (Q9H2K8 whole entry): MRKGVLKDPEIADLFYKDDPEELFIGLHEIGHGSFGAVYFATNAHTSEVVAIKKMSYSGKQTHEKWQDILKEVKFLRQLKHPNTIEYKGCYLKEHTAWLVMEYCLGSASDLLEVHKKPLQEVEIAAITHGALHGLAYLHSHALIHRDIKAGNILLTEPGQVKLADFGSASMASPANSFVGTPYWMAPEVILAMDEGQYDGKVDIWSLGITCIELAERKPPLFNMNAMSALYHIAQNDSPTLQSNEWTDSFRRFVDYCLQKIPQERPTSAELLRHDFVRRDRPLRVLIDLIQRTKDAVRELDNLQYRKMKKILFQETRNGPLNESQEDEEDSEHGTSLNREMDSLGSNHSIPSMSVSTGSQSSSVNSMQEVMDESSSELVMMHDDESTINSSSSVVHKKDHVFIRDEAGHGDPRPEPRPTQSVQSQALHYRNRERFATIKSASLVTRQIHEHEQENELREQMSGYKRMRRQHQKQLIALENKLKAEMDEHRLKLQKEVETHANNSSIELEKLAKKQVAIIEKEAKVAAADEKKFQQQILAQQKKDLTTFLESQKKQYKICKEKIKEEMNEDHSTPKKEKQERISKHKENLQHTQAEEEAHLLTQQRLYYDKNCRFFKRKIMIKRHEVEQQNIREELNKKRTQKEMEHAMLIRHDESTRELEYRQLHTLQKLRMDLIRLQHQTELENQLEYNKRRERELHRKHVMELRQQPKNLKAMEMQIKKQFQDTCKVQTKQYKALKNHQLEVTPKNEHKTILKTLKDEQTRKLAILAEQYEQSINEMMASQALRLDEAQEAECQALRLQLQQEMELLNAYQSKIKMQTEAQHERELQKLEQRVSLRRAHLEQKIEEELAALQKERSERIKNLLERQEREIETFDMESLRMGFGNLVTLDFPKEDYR
Sequence of cGMP-dependent protein kinase 1 (Homo sapiens) (Q13976 whole entry): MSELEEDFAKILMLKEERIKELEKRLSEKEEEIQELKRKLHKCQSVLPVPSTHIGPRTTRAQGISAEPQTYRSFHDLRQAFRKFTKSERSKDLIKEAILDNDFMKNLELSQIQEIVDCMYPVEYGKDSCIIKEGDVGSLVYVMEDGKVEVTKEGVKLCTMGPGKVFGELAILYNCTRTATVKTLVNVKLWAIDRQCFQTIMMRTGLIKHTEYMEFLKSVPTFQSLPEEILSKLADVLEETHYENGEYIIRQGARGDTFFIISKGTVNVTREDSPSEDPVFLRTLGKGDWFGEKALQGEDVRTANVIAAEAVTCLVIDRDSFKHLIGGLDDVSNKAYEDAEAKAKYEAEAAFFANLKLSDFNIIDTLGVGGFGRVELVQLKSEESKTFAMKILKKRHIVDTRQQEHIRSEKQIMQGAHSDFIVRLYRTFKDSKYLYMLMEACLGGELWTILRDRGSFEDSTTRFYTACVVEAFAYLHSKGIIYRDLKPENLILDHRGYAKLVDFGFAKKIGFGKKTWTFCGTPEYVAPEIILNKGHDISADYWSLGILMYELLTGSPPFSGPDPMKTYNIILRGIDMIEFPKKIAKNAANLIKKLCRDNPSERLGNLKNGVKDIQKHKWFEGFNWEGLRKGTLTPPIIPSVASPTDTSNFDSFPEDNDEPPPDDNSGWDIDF
Sequence of Serine/threonine-protein kinase 4 (Homo sapiens) (Q13043 whole entry): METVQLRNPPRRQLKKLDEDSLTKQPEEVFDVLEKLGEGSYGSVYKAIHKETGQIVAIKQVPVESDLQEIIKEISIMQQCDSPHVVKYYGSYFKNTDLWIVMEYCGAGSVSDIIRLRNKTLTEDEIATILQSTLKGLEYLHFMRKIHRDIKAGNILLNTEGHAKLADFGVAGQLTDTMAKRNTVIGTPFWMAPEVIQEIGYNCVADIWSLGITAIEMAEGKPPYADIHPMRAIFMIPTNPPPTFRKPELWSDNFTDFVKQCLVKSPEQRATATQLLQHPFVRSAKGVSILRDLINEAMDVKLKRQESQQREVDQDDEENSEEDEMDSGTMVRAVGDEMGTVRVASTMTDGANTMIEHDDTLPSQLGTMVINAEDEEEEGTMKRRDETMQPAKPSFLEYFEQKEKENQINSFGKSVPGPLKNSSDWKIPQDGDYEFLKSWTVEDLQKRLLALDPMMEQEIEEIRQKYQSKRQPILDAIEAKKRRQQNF
Sequence of Serine/threonine-protein kinase ICK (Homo sapiens) (Q9UPZ9 whole entry): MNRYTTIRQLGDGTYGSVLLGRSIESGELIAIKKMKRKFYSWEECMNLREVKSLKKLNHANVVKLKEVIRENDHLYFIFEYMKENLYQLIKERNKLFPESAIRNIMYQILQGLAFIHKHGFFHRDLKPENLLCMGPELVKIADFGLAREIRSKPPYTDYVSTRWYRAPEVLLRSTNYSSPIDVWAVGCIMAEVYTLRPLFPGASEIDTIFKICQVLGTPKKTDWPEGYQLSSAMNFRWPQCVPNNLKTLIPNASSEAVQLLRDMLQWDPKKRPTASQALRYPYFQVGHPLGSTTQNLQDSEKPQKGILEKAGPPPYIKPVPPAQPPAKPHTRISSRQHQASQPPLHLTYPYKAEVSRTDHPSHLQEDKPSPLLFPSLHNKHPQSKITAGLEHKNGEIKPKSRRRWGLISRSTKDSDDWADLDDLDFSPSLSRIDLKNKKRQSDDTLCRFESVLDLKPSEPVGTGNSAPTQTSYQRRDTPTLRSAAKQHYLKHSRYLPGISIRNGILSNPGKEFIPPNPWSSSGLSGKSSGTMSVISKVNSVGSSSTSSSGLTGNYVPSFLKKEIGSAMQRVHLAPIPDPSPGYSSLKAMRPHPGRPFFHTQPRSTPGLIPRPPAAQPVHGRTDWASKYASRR
Sequence of Serine/threonine-protein kinase MAK (Homo sapiens) (P20794 whole entry): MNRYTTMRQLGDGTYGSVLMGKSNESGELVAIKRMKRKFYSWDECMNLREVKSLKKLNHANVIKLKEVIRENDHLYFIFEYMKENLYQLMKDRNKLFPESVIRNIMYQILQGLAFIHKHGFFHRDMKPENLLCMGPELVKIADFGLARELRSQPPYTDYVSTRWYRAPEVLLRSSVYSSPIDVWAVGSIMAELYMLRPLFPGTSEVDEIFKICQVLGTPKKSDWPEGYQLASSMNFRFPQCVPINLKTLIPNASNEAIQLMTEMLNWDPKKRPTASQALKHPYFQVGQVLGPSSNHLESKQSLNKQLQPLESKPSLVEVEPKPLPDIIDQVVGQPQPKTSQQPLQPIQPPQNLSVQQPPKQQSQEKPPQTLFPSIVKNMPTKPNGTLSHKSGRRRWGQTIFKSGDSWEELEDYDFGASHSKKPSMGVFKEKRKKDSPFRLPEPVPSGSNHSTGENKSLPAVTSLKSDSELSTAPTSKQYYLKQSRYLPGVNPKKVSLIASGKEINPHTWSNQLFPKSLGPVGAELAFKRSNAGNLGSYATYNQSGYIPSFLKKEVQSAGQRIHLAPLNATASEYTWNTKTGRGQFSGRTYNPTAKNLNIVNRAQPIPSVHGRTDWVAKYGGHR

O=C1NC(c2ccccn2)Sc2ccccc21 (stereo not given) [BTZO-4]
inactive: residual activity [1] 100% | residual activity [2] 75% | residual activity [3] 77% | residual activity [4] 93% | residual activity [5] 77% | residual activity [6] 71% | residual activity [7] 75% | residual activity [8] 86% | residual activity [9] 100% | residual activity [10] 89% | residual activity [11] 80% | residual activity [12] 86% | residual activity [13] 100% | residual activity [14] 81% | residual activity [15] 86% | residual activity [16] 95% | residual activity [17] 86% | residual activity [18] 79% | residual activity [19] 92% | residual activity [20] 81% | residual activity [21] 92% | residual activity [22] 100% | residual activity [23] 81% | residual activity [24] 100% | residual activity [25] 58% | residual activity [26] 100% | residual activity [27] 57% | residual activity [28] 97% | residual activity [29] 100% | residual activity [30] 88% | residual activity [31] 100% | residual activity [32] 91% | residual activity [33] 72% | residual activity [34] 76% | residual activity [35] 100% | residual activity [36] 93% | residual activity [37] 77% | residual activity [38] 55% | residual activity [39] 100% | residual activity [40] 100% | residual activity [41] 92% | inhibition [42] 27.8% | inhibition [43] -0.624% | inhibition [44] 4.68% | inhibition [45] 0.557%

O=c1nc(-c2ccccn2)sc2ccccc12 [BTZO-1]
inactive: residual activity [1] 100% | residual activity [2] 96% | residual activity [3] 100% | residual activity [4] 87% | residual activity [5] 88% | residual activity [6] 75% | residual activity [7] 90% | residual activity [8] 100% | residual activity [9] 100% | residual activity [10] 100% | residual activity [11] 100% | residual activity [12] 100% | residual activity [13] 100% | residual activity [14] 76% | residual activity [15] 89% | residual activity [16] 100% | residual activity [17] 83% | residual activity [18] 92% | residual activity [19] 100% | residual activity [20] 92% | residual activity [21] 89% | residual activity [22] 100% | residual activity [23] 75% | residual activity [24] 100% | residual activity [25] 91% | residual activity [26] 100% | residual activity [27] 77% | residual activity [28] 92% | residual activity [29] 100% | residual activity [30] 82% | residual activity [31] 100% | residual activity [32] 99% | residual activity [33] 84% | residual activity [34] 85% | residual activity [35] 100% | residual activity [36] 87% | residual activity [37] 73% | residual activity [38] 59% | residual activity [39] 100% | residual activity [40] 100% | residual activity [41] 86% | inhibition [42] 13.6% | inhibition [43] 4.81% | inhibition [44] 1.65% | inhibition [45] -7.5%
